Where only a bound is given, the exact number is not on record here.

The target in this assay is T1, TRAP1 enzyme (Homo sapiens, UniProt Q12931).
T1 sequence (Q12931 60-704): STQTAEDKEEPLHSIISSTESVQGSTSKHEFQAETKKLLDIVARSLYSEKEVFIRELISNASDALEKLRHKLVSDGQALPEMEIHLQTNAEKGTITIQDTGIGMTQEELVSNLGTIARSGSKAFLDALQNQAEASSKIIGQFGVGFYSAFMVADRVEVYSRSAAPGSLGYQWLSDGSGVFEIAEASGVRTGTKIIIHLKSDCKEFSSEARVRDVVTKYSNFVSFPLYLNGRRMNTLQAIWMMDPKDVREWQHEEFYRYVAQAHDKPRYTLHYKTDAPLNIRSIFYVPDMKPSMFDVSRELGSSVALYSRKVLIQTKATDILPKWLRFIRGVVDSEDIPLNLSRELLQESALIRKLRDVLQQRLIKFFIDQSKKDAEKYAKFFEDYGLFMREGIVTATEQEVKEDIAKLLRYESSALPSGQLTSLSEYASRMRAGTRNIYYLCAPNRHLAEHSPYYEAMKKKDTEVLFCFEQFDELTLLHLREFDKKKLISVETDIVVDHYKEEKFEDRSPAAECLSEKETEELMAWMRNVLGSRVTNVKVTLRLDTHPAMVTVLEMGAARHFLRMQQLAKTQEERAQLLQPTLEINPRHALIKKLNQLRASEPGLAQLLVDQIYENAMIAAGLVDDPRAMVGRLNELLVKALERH
Nature of the assay: ADP Glo assay (ATPase activity of TRAP1). The assay is classed as biochemical. The conditions noted are these: for EC50: 150 nM Trap1, 20 µM ATP, concentration for half maximal activation, read-out: ADP GLO DRC: GeoMean EC50; for Emax: read-out: ADP GLO DRC: Mean Emax. On the procedure: Potency of test compounds to modulate the ATPase activity of TRAP1 enzyme was evaluated using ADP Glo assay. The assay is based on quantification of the ADP generated from ATP in the ATPase reaction. The assay is performed in two steps; first, after the ATPase reaction, an equal volume of ADP-Glo™ Reagent is added to terminate the ATPase reaction and deplete the remaining ATP. Second, the Kinase Detection Reagent is added to simultaneously convert ADP to ATP and allow the newly synthesized ATP to be measured using a luciferase/luciferin reaction.
All the assays were carried out in a 384-well Proxiplate. The buffer used was 25 mM Pipes pH-7.5, 40 mM KCl, 0.05 mM MgCl2, 0.025 % BSA, 0.316 mM EGTA, 0.003% Empigen, 0.01% Igepal. 150 nM Trap1 enzyme was incubated with various concentrations of the test compound (0.79 µM - 100 µM) at 37° C. for 30 mins (except in blank wells). 20 µM ATP was added to each well to start the reaction. The plate was spun for 1 min at 1200 rpm and then incubated at 37° C. for 60 mins. 5 µl of ADP Glo reagent was added to all the wells and spun the plate for 1 min at 1200 rpm and kept it on a shaker at ambient temperature for 60 mins. 10 µl of kinase detection mix was added to all the wells and the plate was read for Luminescence at 495 nm. The amount of ADP released was estimated from ATP/ADP standard curve generated at the same experimental conditions. Emax (Maximal percent activation) and EC50 (concentration for half maximal activation ) were estimated by fitting the dose response data to a sigmoidal curve fitting equation using Graphpad Prism software V. 8.

Consider `Cn1c(C(=O)Nc2ccc3c(c2)S(=O)(=O)N(c2ccc(C(F)(F)F)cc2)CCO3)cnc1O` [Compound 2351], for which the EC50 is 30 to 100 µM. Where the note is “maximal percent activation”, the Emax is greater than 200%.

Regarding `O=C(Nc1ccc2c(c1)S(=O)(=O)N(c1ccc(C(F)(F)F)cc1)CCO2)c1cc(=O)cco1` [Compound 2190], the concentration giving a half-maximal response (EC50) was 30 to 100 µM. In addition, the Emax (maximal percent activation) is greater than 200%.

With `Cc1ocnc1C(=O)Nc1ccc2c(c1)S(=O)(=O)N(c1ccccc1)CCO2` [Compound 2135, N-(1,1-dioxido-2-phenyl-3,4-dihydro-2H-benzo[b][1,4,5]oxathiazepin-8-yl)-5-methyloxazole-4-carboxamide], the EC50 is 30 to 100 µM. For the setting “maximal percent activation”, the Emax fell in the range of 150 to 200%.

As to `Cn1cc(C(=O)Nc2ccc3c(c2)S(=O)(=O)N(c2ccc(C(F)(F)F)cc2)CCO3)c2cccnc21` [Compound 2451], the EC50 was less than 20 µM. Moreover, the Emax (maximal percent activation) is 129 to 149%.

In the case of `O=C(Nc1ccc2c(c1)S(=O)(=O)N(c1ccc(C(F)(F)F)cc1)CCO2)C1CCCN1` (stereo not drawn) [Compound 2410], the EC50 is 30 to 100 µM. Besides, the Emax (maximal percent activation) lay within 150 to 200%.

In the case of `Cc1nccnc1C(=O)Nc1ccc2c(c1)S(=O)(=O)N(c1ccc(C(F)(F)F)cc1)CCO2` [Compound 2215], the EC50 is 30 to 100 µM. Moreover, the Emax (maximal percent activation) lay in the range of 129 to 149%.

`Cc1cc(C(=O)Nc2ccc3c(c2)S(=O)(=O)N(c2ccc(C(F)(F)F)cc2)CCO3)cc(C)n1` [Compound 2173]: the EC50 is less than 20 µM. Besides, under “maximal percent activation”, the “ADP GLO DRC: Mean Emax” value is recorded as “B (150-200%, inclusive)”.

`Cc1oncc1C(=O)Nc1ccc2c(c1)S(=O)(=O)N(c1ccc(C(F)(F)F)cc1)CCO2` [Compound 2345]: the EC50 was 30 to 100 µM. In addition, under “maximal percent activation”, the Emax is 150 to 200%.

Turning to `CCc1ncccc1C(=O)Nc1ccc2c(c1)S(=O)(=O)N(c1ccc(C(F)(F)F)cc1)CCO2` [Compound 2344], the EC50 is less than 20 µM. Also, where the note is “maximal percent activation”, the Emax is 150 to 200%.

On to `Cc1nscc1C(=O)Nc1ccc2c(c1)S(=O)(=O)N(c1ccc(C(F)(F)F)cc1)CCO2` [Compound 2227], for which the half-maximal effective concentration (EC50) is less than 20 µM. Besides, for the setting “maximal percent activation”, the Emax lay in the range of 129 to 149%.

For the compound `Cc1cc(C(=O)Nc2cnc3c(c2)S(=O)(=O)N(c2ccc(C(F)(F)F)cc2)CCO3)cc(C)n1` [Compound 2515], the EC50 lay in the range of 20 to 30 µM. The Emax (maximal percent activation) was greater than 200%.

Take `O=C(Nc1ccc2c(c1)S(=O)(=O)N(c1ccc(C(F)(F)F)cc1)CCO2)c1ccc(O)nn1` [Compound 2194]: the EC50 was less than 20 µM. For the same compound, the Emax (maximal percent activation) was in the range of 129 to 149%.

`Cn1c(C(=O)Nc2ccc3c(c2)S(=O)(=O)N(c2ccc(C(F)(F)F)cc2)CCO3)cccc1=O` [Compound 2221]: the EC50 was 30 to 100 µM. The Emax (maximal percent activation) lay in the range of 150 to 200%.

In the case of `Cc1ncoc1C(=O)Nc1ccc2c(c1)S(=O)(=O)N(c1ccc(C(F)(F)F)cc1)CCC2` [Compound 2458], the EC50 was less than 20 µM. In addition, the maximal effect (Emax) (maximal percent activation) was in the range of 129 to 149%.

Take `Cc1ccc(N2CCOc3ccc(NC(=O)c4ncoc4C)cc3S2(=O)=O)cc1` [Compound 2362]: the EC50 is 30 to 100 µM. Under “maximal percent activation”, the Emax was 150 to 200%.

As to `Cc1ncsc1C(=O)Nc1ccc2c(c1)S(=O)(=O)N(c1ccc(C(F)(F)F)cc1)CCO2` [Compound 2058, N-(1,1-Dioxido-2-(4-(Trifluoromethyl)Phenyl)-3,4-Dihydro-2H-Benzo[b][1,4,5]Oxathiazepin-8-yl)-4-Methylthiazole-5-Carboxamide], the EC50 is less than 20 µM. The Emax (maximal percent activation) fell in the range of 150 to 200%.

For `Cc1cnn(C)c1C(=O)Nc1ccc2c(c1)S(=O)(=O)N(c1ccc(C(F)(F)F)cc1)CCO2` [Compound 2317], the EC50 was less than 20 µM. The Emax (maximal percent activation) was 129 to 149%.

In the case of `CN1CCc2scc(C(=O)Nc3ccc4c(c3)S(=O)(=O)N(c3ccc(C(F)(F)F)cc3)CCO4)c2C1` [Compound 2472], the EC50 is 30 to 100 µM. The Emax (maximal percent activation) lay in the range of 150 to 200%.

As to `Cn1cnc(C(=O)Nc2ccc3c(c2)S(=O)(=O)N(c2ccc(C(F)(F)F)cc2)CCO3)c1` [Compound 2249], the EC50 is 30 to 100 µM. Also, for the setting “maximal percent activation”, the Emax fell in the range of 150 to 200%.

On to `O=C(Nc1ccc2c(c1)S(=O)(=O)N(c1ccc(C(F)(F)F)cc1)CCO2)c1cncn1CCO` [Compound 2514], for which the EC50 is 20 to 30 µM. Where the note is “maximal percent activation”, the Emax fell in the range of 129 to 149%.

In the case of `O=C(Nc1ccc2c(c1)S(=O)(=O)N(c1ccc(C(F)(F)F)cc1)CCO2)c1ccncn1` [Compound 2175], the EC50 is less than 20 µM. In addition, the maximal response (Emax) (maximal percent activation) lay within 129 to 149%.

In the case of `O=C(Nc1ccc2c(c1)S(=O)(=O)N(c1ccc(C(F)(F)F)cc1)CCO2)c1ncoc1C(F)(F)F` [Compound 2494], the EC50 lay in the range of 30 to 100 µM. Further, the maximal effect (Emax) (maximal percent activation) fell in the range of 129 to 149%.

Take `O=C(Nc1ccc2c(c1)S(=O)(=O)N(c1ccc(C(F)(F)F)cc1)CCO2)c1cnc[nH]c1=O` [Compound 2334]: the EC50 is less than 20 µM. In addition, where the note is “maximal percent activation”, the maximal effect (Emax) lay within 150 to 200%.

For `Cc1ncoc1C(=O)Nc1ccc2c(c1)S(=O)(=O)N(c1ccc(C(F)(F)F)nc1)CCO2` [Compound 2388], the EC50 lay within 30 to 100 µM. Besides, where the note is “maximal percent activation”, the Emax is 150 to 200%.

`O=C(Nc1ccc2c(c1)S(=O)(=O)N(c1ccc(C(F)(F)F)cc1)CCO2)c1c(F)cncc1F` [Compound 2198]: the EC50 was in the range of 20 to 30 µM. Besides, the Emax (maximal percent activation) was 150 to 200%.

Regarding `Cc1ncoc1C(=O)Nc1ccc2c(c1)S(=O)(=O)N(c1ccc(C(F)F)cc1)CCO2` [Compound 2443], the EC50 was in the range of 30 to 100 µM. For the same compound, the Emax (maximal percent activation) was in the range of 150 to 200%.

As for `O=C(Nc1ccc2c(c1)S(=O)(=O)N(c1ccc(C(F)(F)F)cc1)CCO2)c1cccnc1O` [Compound 2280], the EC50 is 30 to 100 µM. Further, the Emax (maximal percent activation) is 150 to 200%.

As for `O=C(Nc1ccc2c(c1)S(=O)(=O)N(c1ccc(C(F)(F)F)cc1)CCO2)c1cnccc1F` [Compound 2264], the EC50 lay in the range of 20 to 30 µM. For the same compound, the Emax (maximal percent activation) is 129 to 149%.

With `Cc1ccccc1N1CCOc2ccc(NC(=O)c3ncoc3C)cc2S1(=O)=O` [Compound 2096, N-(1,1-dioxido-2-(o-tolyl)-3,4-dihydro-2H-benzo[b][1,4,5]oxathiazepin-8-yl)-5-methyloxazole-4-carboxamide], the EC50 lay within 30 to 100 µM. Moreover, where the note is “maximal percent activation”, the Emax was in the range of 150 to 200%.

Turning to `COc1ccc(N2CCOc3ccc(NC(=O)c4ncoc4C)cc3S2(=O)=O)cc1` [Compound 2167, N-(2-(4-methoxyphenyl)-1,1-dioxido-3,4-dihydro-2H-benzo[b][1,4,5]oxathiazepin-8-yl)-5-methyloxazole-4-carboxamide], the EC50 was 30 to 100 µM. Besides, for the setting “maximal percent activation”, the Emax lay within 150 to 200%.

Take `O=C(Nc1ccc2c(c1)S(=O)(=O)N(c1ccc(C(F)(F)F)cc1)CCO2)c1ccc(O)nc1` [Compound 2299]: the EC50 was in the range of 30 to 100 µM. The Emax (maximal percent activation) is greater than 200%.

For the compound `CN1CCCCC1C(=O)Nc1ccc2c(c1)S(=O)(=O)N(c1ccc(C(F)(F)F)cc1)CCO2` (stereo not drawn) [Compound 2402], the EC50 lay in the range of 30 to 100 µM. Where the note is “maximal percent activation”, the Emax is 150 to 200%.

As for `O=C(Nc1ccc2c(c1)S(=O)(=O)N(c1ccc(C(F)(F)F)cc1)CCO2)c1cccnc1` [Compound 2240], the EC50 was in the range of 30 to 100 µM. Further, the Emax (maximal percent activation) lay within 150 to 200%.

For `Cc1ncoc1C(=O)Nc1ccc2c(c1)S(=O)(=O)N(c1ccc(C(F)(F)F)cc1)CCCO2` [Compound 1989, N-(1,1-Dioxido-2-(4-(Trifluoromethyl) Phenyl)-2,3,4,5-Tetrahydrobenzo[b][1,4,5]Oxathiazocin-9-yl)-4-Methyloxazole-5-Carboxamide], the EC50 fell in the range of 30 to 100 µM. Further, where the note is “maximal percent activation”, the Emax is greater than 200%.

For the compound `Cc1ncc(C(=O)Nc2ccc3c(c2)S(=O)(=O)N(c2ccc(C(F)(F)F)cc2)CCO3)n1C` [Compound 2355], the EC50 is less than 20 µM. Further, the Emax (maximal percent activation) is greater than 200%.

For the compound `Cc1ocnc1C(=O)Nc1ccc2c(c1)S(=O)(=O)N(c1ccc(C#N)cc1)CCO2` [Compound 2377, N-(2-(4-cyanophenyl)-1,1-dioxido-3,4-dihydro-2H-benzo[b][1,4,5]oxathiazepin-8-yl)-5-methyloxazole-4-carboxamide], the EC50 lay in the range of 30 to 100 µM. In addition, the Emax (maximal percent activation) is 150 to 200%.

These data come from patent US20230218632A1, “CYCLIC SULFONAMIDE DERIVATIVES AS TRAP1 MODULATORS AND USES THEREOF” (Amathus Therapeutics, Inc., priority 2020, published 2023).
